The values that follow come from patent US20160022751A1, “NOVEL COMPOSITION FOR TREATING ALZHEIMER'S DISEASE AND IMPROVING COGNITIVE FUNCTION OF ALZHEIMER'S PATIENTS” (GANGNEUNG-WONJU NATIONAL UNIVERSITY INDUSTRY ACADEMY …, priority 2014, published 2016).

The test system of one assay is p38. The experiment in a line: p38 phosphorylation in HMO6 cells (western blot). Format: cell-based, human. Particulars: Rg3 5 μg/ml, western blot (FIG. 18). The procedure: FIG. 18 is a photograph showing a result of western blot analysis for confirming the degree of phosphorylation of ERK (extracellular-regulated kinase) and p38, according to an embodiment of the present invention. Depending on the presence of Rg3, the levels of phospho-ERK and phospho-p38 protein were investigated by immune-blotting. HMO6 cells were treated with Rg3 (5 μg/ml) after plated on 60 mm cell culture plates and western blot analysis was performed after the cells were placed in phenol red negative/sere-free DMEM medium for 1 h. The western blot analysis was carried out three times independently.
(§1) HMO6 cells were lysed in 1% RIPA buffer containing protease and phosphatase inhibitors (Roche, Mannheim, Germany) and whole-cell lysates were separated on 10% sodium dodecyl sulfate-polyacrylamide gel electrophoresis. After electrophoresis, the proteins were transferred to polyvinylidene fluoride membranes, and the membranes were blocked with 5% skim milk in Tris-buffered saline solution containing 0.1% Tween-20. The membranes were then immunoblotted with primary antibodies, anti-phospho-p38, anti-p38, anti-phospho-ERK, anti-ERK, and anti-f3-actin (Santa Cruz Biotechnology, USA), followed by incubation with horseradish peroxidase-conjugated anti-rabbit or anti-mouse secondary antibodies (Stressgen, USA). Blots were developed using an enhanced chemiluminescent solution (Thermo, USA).
On the technique in general: Immunoblotting shows a protein as a band on a membrane.

The subject of the next assay is NEP. The assay can be described thus: NEP protein expression in HMO6 cells (western blot, immunocytochemistry). It counts as cell-based, human. The following applies: 5 μg/ml Rg3, 24 h (FIG. 19). How it is done:
FIG. 19 represents an images showing a result of western blot analysis of the expression of NEP (neprilysin) and IDE (insulin-degrading enzyme) in HMO6 cells (A); graphs representing the above result quantitatively (B and C), and fluorescence microscopic images representing immunocytochemical analyses (D and E). The expression of NEP and IDE in HMO6 cells was analyzed by western blot analysis and immunocytochemistry after treating Aβ42 (5 μM) or Rg3 (2.5 or 5 μg/ml) for 24 h to HMO6 cells in serum-free DMEM medium plated on 60 mm cell culture plates or chamber slides. The results are shown as mean±SD. * P<0.05, ** P<0.01, *** P<0.001.
as §1, with “Blots were developed using an enhanced chemiluminescent solution (Thermo, USA).” left out

For another assay, the system named is caveolin1. The experiment in a line: Caveolin1 immunocytochemistry in HMO6 cells. Format: cell-based, human. The following applies: Rg3 5 μg/ml, 24 h, immunocytochemistry (FIG. 20). The procedure: FIG. 20 is a fluorescence microscopic image showing a result of immunocytochemical analysis investigating the expression of caveolin and clathrin in HMO6 cells treated with or without Rg3. HMO6 cells were treated with Rg3 (5 μg/ml) for 24 h after plated on chamber slides and then the cells were stained with primary antibodies binding specifically to caveolin and clathrin, respectively and counterstained with DAPI. The length of scale bar represents 10 μm.
The present inventors investigated whether ginsenosides can induce the expression of SRA, clathrin, caveolin 1, NEP or IDE and the differentiation of neurons actually through immunocytochemical analysis (ICC) and microscopic observations. Specifically, Cultured HMO6 cells were fixed in 4% paraformaldehyde (in 1×PBS) for 15 min, washed twice with 1×PBS supplemented with 100 mM glycine for 5 min, and incubated with permeabilization buffer consisting of 0.1% Triton X-100 (Sigma-Aldrich, USA) in 1×PBS for 30 min at room temperature. Blocking was performed with 1% bovine serum albumin (BSA, Sigma-Aldrich, USA) for 30 min at room temperature. Then, SRA, clathrin, caveolin1, NEP, or IDE mouse monoclonal antibody (1:200; Santa Cruz Biotechnology, USA) was added to 1% BSA in PBS with Tween 20 (PBST) and incubated for 2 h at room temperature. […]

In a further assay the test system is Aβ42. The experiment in a line: Morris water maze test in Aβ42-infused animals. It counts as in vivo. Particulars: Aβ42 rats administered Rg3 (FIG. 25). How it is done:
Male BALB/c mice (10 weeks old) were purchased from Samtaco (Korea), and were adapted to laboratory conditions (temperature: 20±2° C., relative humidity: 50%, light/dark cycle: 12 h) for 1 week. Five-week-old male Sprague-Dawley rats were obtained from Daehan-Biolink (Korea) for learning and memory testing. The animals (n=5/group) were maintained at a constant temperature (23±2° C.), relative humidity, 55±10%, and 12-h light/dark cycle. The animals were fed a standard rodent chow and purified water ad libitum. Lyophilized Aβ42 (0.5 mg, Bachem Torrance, USA) was resuspended in PBS (pH 7.4) by shaking for 7 days at room temperature to prepare the fibrillar-aggregated Aβ42 (fAβ42). At 10 weeks of age, mice were anesthetized, and 1 μl fAβ42 (350 μM stock concentration) was stereotaxically injected unilaterally into the parietal cortex (anterior 1.7 mm, lateral 1 mm, and ventral 1 mm to the bregma above the hippocampus within 1 min) (Mohajeri et al., J. Biol. Chem., 277: 35460-35465, 2002)
The present inventor performed learning and memory tests using rats in order to investigate whether Rg3 can ameliorate symptoms of Alzheimer's model animals in deed. […] The latency time of stay in the light room from lights-on was recorded following an electric shock (1 mA for 2 s) in the dark compartment. […] The mean time spent to escape onto the platform was recorded.

Structures are written as SMILES.

As for `CC(C)=CCC[C@](C)(O)[C@H]1CC[C@]2(C)[C@@H]1[C@H](O)C[C@@H]1[C@@]3(C)CC[C@H](O[C@@H]4O[C@H](CO)[C@@H](O)[C@H](O)[C@H]4O[C@@H]4O[C@H](CO)[C@@H](O)[C@H](O)[C@H]4O)C(C)(C)[C@@H]3CC[C@]12C` [ginsenoside Rg3], the “phosphorylation of p38” value with p38 is “promoted the phosphorylation”. Also, the “NEP expression in cells” value with NEP is recorded as “distinctively expressed”. The caveolin1 expression result in the assay with caveolin1 is “highly expressed”. Also, in the assay with Aβ42, the “learning and memory functions, Morris water-maze” value is “maintained learning and memory functions at 4-5 weeks”.
